Measurements: US5281710A, “Dynemicin analogs: synthesis, methods of preparation and use” (The Scripps Research Institute, priority 1992, dated 1994)
pIC50: −log10 of the molar value. Entries after “also recorded” stand apart in the source; their conditions may differ.

What was measured:
[1] = tested on: MOLT-4 (Leukemia) cell line; experiment: cells; format: cell-based; conditions: Homo sapiens, MOLT-4, Molt-4 leukemia cell line; read-out: IC50
Description: (§1) In addition to the screening already discussed, several of the before-described compounds and chimeras were screened against several or all of a panel of ten to twenty-five cancerous cell lines as target cells and seven "normal" cell preparations. This screening utilized a sulforhodamine B cytotoxidity assay as discussed below.
(§2) IC50 values; i.e., the concentration of Compound required to kill one-half of the treated cells, were then calculated.

[2] = tested on: NHDF normal human dermal fibroblasts; experiment: cells; format: cell-based; conditions: NHDF
Description: as §1, §2
NHDF Normal human dermal fibroblasts

SK-Mel-28 melanoma cells = experiment: Sulforhodamine B cytotoxicity, SK-Mel-28; format: cell-based; conditions: Homo sapiens, SK-MEL-28, SK-Mel-28; read-out: IC50
Description: as §1, §2

[3] = tested on: Ovcar-3 ovarian carcinoma cells; experiment: Sulforhodamine B cytotoxicity, Ovcar-3; format: cell-based; conditions: Homo sapiens, OVCAR-3, Ovcar-3; read-out: IC50
Description: as §1, §2

[4] = tested on: HT-29 colon carcinoma cells; experiment: Sulforhodamine B cytotoxicity, HT-29; format: cell-based; conditions: Homo sapiens, HT-29, colon carcinoma H-29 (Table 4) / HT-29 (Table 5); read-out: IC50
Description: as §1, §2

[5] = tested on: MCF-7 breast carcinoma cells; experiment: Sulforhodamine B cytotoxicity, MCF-7; format: cell-based; conditions: Homo sapiens, MCF7, MCF-7; read-out: IC50
Description: as §1, §2

[6] = tested on: MCF-7(ADR) breast carcinoma cells; experiment: Sulforhodamine B cytotoxicity, MCF-7/ADR; format: cell-based; conditions: Homo sapiens, NCI/ADR-RES, Adriamycin resistant
Description: as §1, §2

[7] = tested on: H-322 lung carcinoma cells; experiment: Sulforhodamine B cytotoxicity, H-322; format: cell-based; conditions: NCI-H322; H-322; read-out: IC50
Description: as §1, §2

[8] = tested on: Capan-1 pancreatic carcinoma cells; experiment: Sulforhodamine B cytotoxicity, Capan-1; format: cell-based; conditions: Homo sapiens, CAPAN-1, Capan-1; read-out: IC50
Description: as §1, §2

[9] = tested on: HL-60 promyeocytic leukemia cells; experiment: Sulforhodamine B cytotoxicity, HL-60; format: cell-based; conditions: Homo sapiens, HL-60, HL-60; read-out: IC50
Description: as §1, §2

[10] = tested on: PC-3 prostate carcinoma cells; experiment: Sulforhodamine B cytotoxicity, PC-3; format: cell-based; conditions: Homo sapiens
Description: as §1, §2

[11] = tested on: SIHA cervical carcinoma cells; experiment: Sulforhodamine B cytotoxicity, SIHA; format: cell-based; conditions: Homo sapiens
Description: as §1, §2

[12] = tested on: NHEK normal human epidermal keratinocytes; experiment: Sulforhodamine B cytotoxicity, NHEK; format: cell-based; conditions: normal cells
Description: as §1, §2
NHEK Normal human epidermal keratinocytes

[13] = tested on: HMEC human mammary epithelial cells; experiment: Sulforhodamine B cytotoxicity, HMEC; format: cell-based; conditions: Homo sapiens, normal cells
Description: as §1, §2
HMEC Human mammary epithelial cells

[14] = tested on: CHO Chinese hamster ovary cells; experiment: Sulforhodamine B cytotoxicity, CHO; format: cell-based; conditions: Cricetulus griseus; CHO, normal cells
Description: as §1, §2

Water solubility = format: physicochemical
φX174 Form I DNA = conditions: literature; cited from earlier work
[15] = mice, comparison value; cited from earlier work
cancer cell lines = experiment: cells; format: cell-based; conditions: Average data obtained from 5~10 cell lines; read-out: IC50 (average)
Description: as §1
SULFORHODAMINE B CYTOTOXICITY ASSAY
a. Stock drug solutions were prepared by dissolving drug in the appropriate solvent (determined during chemical characterization studies) and sterile filtering the drug-solvent solution through a sterile 0.2μ filter unit. An aliquot was taken from each filtered drug solution and the O.D. was measured to determine the drug concentration.
f. Incubate (37° C., 5-10 percent CO2 in humidified incubator) plates for a total of 72 hours. Check plates at 24 hour intervals microscopically for signs of cytotoxicity.
as §2
All other cells or cell lines were obtained from the American Type Culture Collection (ATCC) (all except CHO cells are human or mouse cancer cell lines as described by the ATC).
Tables 1 and 2 herein below provide average IC50 data from five to all ten of the above cancer cells lines for fused ring enediyne compounds disclosed herein. Those tables provide a generic structure and a description of the R group of that generic structure for each compound. Compound numbers as noted hereinbefore are also provided. Table 3 contains data for two fused-ring enediyne compounds (Compounds 47 and 120) as well as data for six chimers. Table 4 contains cancer cell and noraml cell cytotoxicity data for one select fused ring enediyne, Compound 153 against a number of "normal" cell preparations and tumor cell lines. Table 5 contains cancer cell and normal cell cytotoxicity data for another fused ring enediyne, Compound 250 against a similar panel of cells.

[16] = tested on: MB49 murine bladder carcinoma cells; experiment: 6-well cytotoxicity assay, MB49; format: cell-based; conditions: MB-49
Description: MIA PaCa-2 cells, MB-49, CV-1 or WI-38 cells were loaded into each well of a 6-well plate at a density of 100,000 cells/well in 3 ml culture medium. They were incubated for 4 hours (37° C., 7 percent CO2). Then 6 microliters of solution containing a compound to be assayed were added into 3 ml of medium (RPMI-1640, with 5 percent fetal bovine serum and 1 percent glutamine) in a 500X dilution so that in one well ethanol was added to make a 0.2 percent ethanol control. The plates were then incubated for 4 days (37° C., 7 percent CO2). The medium was then drained, crystal violet dye (Hucker formula) was added to cover the well bottoms and then they were rinsed with tap water until rinses were clear. The stained cells were solubilized for quantitation with Sarkosyl solution (N-Lauryl sarcosine, 1 percent in water) at 3 ml/well. The absorbance of the solution was then read at 590-650 nm.

## C[N+](C)(C)CC(=O)OCCOc1ccc2c(c1)[C@@]13O[C@]14CCC[C@H]3C#C/C=C\C#C[C@@H]4N2C(=O)OCCS(=O)(=O)c1ccccc1 (relative stereo) [Compound 250]
[1]
  pIC50: ~4.00
[2]; Homo sapiens, normal cells, read-out: IC50
  pIC50: 5.20
SK-Mel-28 melanoma cells
  pIC50: 5.51
[3]
  pIC50: < 7.01
[4]
  pIC50: 6.72
[5]
  pIC50: < 7.01
[6]
  pIC50: 6.72
[7]
  pIC50: 4.89
[8]
  pIC50: < 7.01
[9]
  pIC50: < 7.01
[10]
  pIC50: 5.80
[11]
  pIC50: < 7.01
[12]
  pIC50: 5.80
[13]
  pIC50: 5.51
[14]
  pIC50: 7.01
Water solubility
  water solubility: enhanced water solubility as compared to Compound 153; also recorded: more water soluble derivative of Compound 153

## CCN[C@H]1CO[C@@H](O[C@H]2[C@H](O[C@H]3C#C/C=C\C#C[C@]4(O)CC(=O)C(NC(=O)OC)=C3/C4=C\CSSSC)O[C@H](C)[C@@H](NO[C@H]3C[C@H](O)[C@H](SC(=O)c4c(C)c(I)c(O[C@@H]5O[C@@H](C)[C@H](O)[C@@H](OC)[C@H]5O)c(OC)c4OC)[C@@H](C)O3)[C@@H]2O)C[C@@H]1OC [Calicheamicin]
[2]; control drugs, read-out: Range of Average IC50 Values, NHDF
  pIC50: 8.60
φX174 Form I DNA
  DNA cleavage sequence specificity: double DNA strand cuts at specific sequences
[15]
  LD50: 5 µg/kg

## O=C(Oc1ccccc1)N1c2ccccc2C23OC24CCCC3(O)C#C/C=C\C#CC14 (stereo not drawn) [Compound 2]
Cancer cell lines
  pIC50: 5.20
[16]
  anti-tumor cell activity: more active against the cancerous MB-49 cells than against non-transformed CV-1 African green monkey kidney cells (ATCC CCL 70) or WI-38 human lung cells
